In patent US9861116B2, “Pet food compositions for inducing a satiety response” (Hill's Pet Nutrition, Inc., priority 2010, dated 2018):

Legend:
NPY = test: Affymetrix feline GeneChip gene expression analysis, NPY; format: cell-based; settings: in two cell lines tested, amount tested 0.003 mg/mL, 0.03 mg/mL, treatment intensity/control intensity
Method: (§1) Gene expression was analyzed using proprietary feline GeneChip® Arrays prepared by Affymetrix, Inc., Santa Clara, Calif. 95051. Total RNA is reverse transcribed into cDNA. The cDNA is used to generate cRNA which is fragmented and used as probes for GeneChip hybridization. The gene chip is washed and the hybridization signal is measured with an Affymetrix laser scanner. The hybridization data is then validated and normalized for further analysis.
(§2) Materials: Affymetrix provided most of the reagents and kit. Other reagents listed in the Affymetrix Manual but not supplied in the kit were obtained separately. Refer to GeneChip Expression Analysis Technical Manual (701021 Rev.4) for the details.
(§3) Equipment. […]
(§4) Affymetrix gene chips are used to determine the effect of various test substances or ingredients on gene expression in four feline cell lines and appropriate controls. […] Gene expression was measured for the treatment cell lines and controls. The gene expression data was determined to be either “up” or “down”-regulated for any given treatment. The decision on whether a gene is “up” or “down” is based on the fold change, which is calculated as treatment intensity/control intensity for each individual probe.

LEPR = test: Affymetrix feline GeneChip gene expression analysis, LEPR; format: cell-based; settings: in all cell lines tested (CCL-150, CCL-176, CRL-2032, CCL-94); amount tested 0.005 mg/mL, 0.05 mg/mL; treatment intensity/control intensity
Method: as §1, §2, §3, §4

Row | Compound | Fold Change (gene expression, NPY) (NPY) | Fold Change (gene expression, LEPR) (LEPR)
1 | CC1=C(/C=C/C(C)=C/C=C/C(C)=C/C=C/C=C(C)/C=C/C=C(C)/C=C/C2=C(C)CCCC2(C)C)C(C)(C)CCC1 [Beta-Carotene] | −1.75 (in two cell | 
2 | Oc1ccc(C=Cc2cc(O)cc(O)c2)cc1 [Resveratrol] |  | 1.96 (in all cell lines
